# Patent publication US7135466B2 (Kirin Beer Kabushiki Kaisha, priority 1999, dated 2006)
# Legend:
# PDGF-Ra = molecular target: T1, PDGF-Ra (Homo sapiens, UniProt P16234); assay: Inhibitory activity against PDGF-Ra phosphorylation by PDGF-AA stimulation using G292; format: cell-based; settings: Pharmacological Test Example 1; > means inhibition at indicated concentration not more than 50%, < and << not less than 50%; read-out: PDGF (E) IC50
# T1 construct: host or cells: G-292 human osteosarcoma cells
# Procedure, shortened: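 Cells seeded in low-serum medium are exposed to test compound for one hour, then PDGF-AA (50 ng/ml) triggers receptor phosphorylation for 5 min at 37 °C. Phospho-PDGF-Ra in solubilized cells is quantified by anti-phosphotyrosine capture ELISA at 450 nm.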
# c-kit = molecular target: T2, c-kit (Homo sapiens, UniProt P10721); assay: Inhibitory activity against c-kit autophosphorylation (MO7e cells, h-SCF); format: cell-based; settings: for IC50: MO7e cells, h-SCF 50 ng/ml, read-out: c-kit IC50; for inhibition at 1 µM: Mo7e, figure in parentheses in −( ), at 1000 nM
# T2 construct: MO7e (human megakaryocytic leukemia cell line) which had been arrested for 20 hr; endogenous in cells; host or cells: MO7e human megakaryocytic leukemia cell line
# Procedure, shortened: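 First, human megakaryocytic leukemia MO7e cells arrested 20 hr receive compound for one hour. Second, SCF stimulation (50 ng/ml) runs 5 min, after which cells are solubilized. Third, tyrosine-phosphorylated c-kit in the lysate is quantified by sandwich ELISA with absorbance at 450 nm.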
# T2 sequence (P10721 26-976): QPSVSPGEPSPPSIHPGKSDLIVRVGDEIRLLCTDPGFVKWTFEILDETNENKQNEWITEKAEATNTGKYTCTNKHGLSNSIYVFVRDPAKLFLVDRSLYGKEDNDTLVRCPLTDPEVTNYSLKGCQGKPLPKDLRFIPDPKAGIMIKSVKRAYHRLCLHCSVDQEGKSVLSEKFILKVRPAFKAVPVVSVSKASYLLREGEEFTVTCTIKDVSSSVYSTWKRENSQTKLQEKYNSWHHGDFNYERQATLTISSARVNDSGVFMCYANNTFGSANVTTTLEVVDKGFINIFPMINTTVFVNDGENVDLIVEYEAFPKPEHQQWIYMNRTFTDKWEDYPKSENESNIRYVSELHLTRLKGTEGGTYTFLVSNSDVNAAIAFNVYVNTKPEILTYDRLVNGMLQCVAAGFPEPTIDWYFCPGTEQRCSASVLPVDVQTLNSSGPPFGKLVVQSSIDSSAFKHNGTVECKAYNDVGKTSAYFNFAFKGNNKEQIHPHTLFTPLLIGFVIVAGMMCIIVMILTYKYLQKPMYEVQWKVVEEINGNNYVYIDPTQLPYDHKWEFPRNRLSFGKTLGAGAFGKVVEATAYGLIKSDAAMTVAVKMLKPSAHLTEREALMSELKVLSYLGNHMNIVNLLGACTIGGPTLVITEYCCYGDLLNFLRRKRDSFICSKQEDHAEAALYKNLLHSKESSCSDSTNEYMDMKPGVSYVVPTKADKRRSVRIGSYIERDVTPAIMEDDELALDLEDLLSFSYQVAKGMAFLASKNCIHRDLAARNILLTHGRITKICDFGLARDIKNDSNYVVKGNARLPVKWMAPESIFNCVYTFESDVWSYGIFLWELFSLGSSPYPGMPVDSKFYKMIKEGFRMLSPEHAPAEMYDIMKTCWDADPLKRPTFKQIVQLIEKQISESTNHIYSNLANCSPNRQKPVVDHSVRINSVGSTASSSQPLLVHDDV
# T1 sequence (P16234 24-1089): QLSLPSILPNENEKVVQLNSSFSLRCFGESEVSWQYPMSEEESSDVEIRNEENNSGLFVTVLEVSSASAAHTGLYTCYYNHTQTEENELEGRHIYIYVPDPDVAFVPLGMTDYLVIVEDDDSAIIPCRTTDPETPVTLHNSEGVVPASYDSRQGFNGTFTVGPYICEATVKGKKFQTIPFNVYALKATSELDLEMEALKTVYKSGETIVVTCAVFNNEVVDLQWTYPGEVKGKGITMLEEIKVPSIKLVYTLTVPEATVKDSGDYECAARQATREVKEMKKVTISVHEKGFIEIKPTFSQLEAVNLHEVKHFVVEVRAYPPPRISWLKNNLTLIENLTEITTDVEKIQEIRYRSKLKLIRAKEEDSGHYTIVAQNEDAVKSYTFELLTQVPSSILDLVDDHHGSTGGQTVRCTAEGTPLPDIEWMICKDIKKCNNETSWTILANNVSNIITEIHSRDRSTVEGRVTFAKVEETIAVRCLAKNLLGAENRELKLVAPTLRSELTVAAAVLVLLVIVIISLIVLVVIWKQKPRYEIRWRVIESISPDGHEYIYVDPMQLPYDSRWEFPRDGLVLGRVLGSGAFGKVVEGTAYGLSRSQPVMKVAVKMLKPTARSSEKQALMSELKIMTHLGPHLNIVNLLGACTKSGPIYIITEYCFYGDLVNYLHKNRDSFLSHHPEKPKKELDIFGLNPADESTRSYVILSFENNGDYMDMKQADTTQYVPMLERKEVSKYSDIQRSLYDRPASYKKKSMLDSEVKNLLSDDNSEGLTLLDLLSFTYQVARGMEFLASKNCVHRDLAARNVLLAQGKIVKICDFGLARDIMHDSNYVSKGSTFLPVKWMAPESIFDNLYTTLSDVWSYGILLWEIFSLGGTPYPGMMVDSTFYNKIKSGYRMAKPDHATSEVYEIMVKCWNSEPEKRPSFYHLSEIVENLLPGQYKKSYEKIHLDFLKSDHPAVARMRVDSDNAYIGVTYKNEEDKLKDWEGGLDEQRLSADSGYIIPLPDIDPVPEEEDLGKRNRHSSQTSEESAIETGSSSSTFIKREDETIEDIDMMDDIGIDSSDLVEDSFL
IC50 (PDGF-Ra) [nM],IC50 (c-kit) [nM],inhibition at 1 µM (c-kit) [%],Structure (SMILES)
32,519,,"COc1cc2ncnc(Oc3ccc(NC(=O)OCC4CCCCC4)c(Cl)c3)c2cc1OC [Example 341, Cyclohexylmethyl N-{2-chloro-4-[(6,7-dimethoxy-4-quinazolinyl)oxy]phenyl}carbamate]"
< 10,< 30,,"COc1cc2ncnc(Oc3ccc(NC(=O)OC4CCCCCC4)cc3)c2cc1OC [Example 342, Cycloheptyl N-{4-[(6,7-dimethoxy-4-quinazolinyl)oxy]phenyl}carbamate]"
< 10,232,,"COc1cc2ncnc(Oc3ccc(NC(=O)OC4CCCCCC4)c(Cl)c3)c2cc1OC [Example 343, Cycloheptyl N-{2-chloro-4-[(6,7-dimethoxy-4-quinazolinyl)oxy]phenyl}carbamate]"
< 10,< 30,,"CCCCOC(=O)Nc1ccc(Oc2ncnc3cc(OC)c(OC)cc23)cc1 [Example 344, Butyl N-{4-[(6,7-dimethoxy-4-quinazolinyl)oxy]phenyl}carbamate]"
41,,37,"CCC(OC(=O)Nc1ccc(Oc2ncnc3cc(OC)c(OC)cc23)cc1Cl)c1ccccc1 (centres unmarked) [Example 346, 1-Phenylpropyl N-{2-chloro-4-[(6,7-dimethoxy-4-quinazolinyl)oxy]phenyl}carbamate]"
77,228,,"COc1cc2nccc(Oc3cc(C)c(NC(=O)OC(C)C)cc3C)c2cc1OC [Example 347, Isopropyl N-{4-[(6,7-dimethoxy-4-quinolyl)oxy]-2,5-dimethylphenyl}carbamate]"
< 10,90,,"COc1cc2nccc(Oc3ccc(NC(=O)OCC4CCCCCC4)cc3)c2cc1OC [Example 348, Cycloheptylmethyl N-{4-[(6,7-dimethoxy-4-quinolyl)oxy]phenyl}carbamate]"
12,309,,"COc1cc2nccc(Oc3cc(C)c(NC(=O)OCC4CCCCCC4)cc3C)c2cc1OC [Example 349, Cycloheptylmethyl N-{4-[(6,7-dimethoxy-4-quinolyl)oxy]-2,5-dimethylphenyl}carbamate]"
< 10,238,,"COc1cc2nccc(Oc3ccc(NC(=O)OCC4CCCCCC4)c(C)c3C)c2cc1OC [Example 350, Cycloheptylmethyl N-{4-[(6,7-dimethoxy-4-quinolyl)oxy]-2,3-dimethylphenyl}carbamate]"
< 10,64,,"COc1cc2ncnc(Oc3ccc(NC(=O)OCC4CCCCCC4)cc3)c2cc1OC [Example 351, Cycloheptylmethyl N-{4-[(6,7-dimethoxy-4-quinazolinyl)oxy]phenyl}carbamate]"
< 10,195,,"COc1cc2ncnc(Oc3ccc(NC(=O)OCC4CCCCCC4)c(Cl)c3)c2cc1OC [Example 352, Cycloheptylmethyl N-{2-chloro-4-[(6,7-dimethoxy-4-quinazolinyl)oxy]phenyl}carbamate]"
15,384,,"COc1cc2nccc(Oc3cc(C)c(NC(=O)OCCC4CCCCC4)cc3C)c2cc1OC [Example 354, 2-Cyclohexylethyl N-{4-[(6,7-dimethoxy-4-quinolyl)oxy]-2,5-dimethylphenyl}carbamate]"
24,252,,"COc1cc2nccc(Oc3ccc(NC(=O)OCCC4CCCCC4)c(C)c3C)c2cc1OC [Example 355, 2-Cyclohexylethyl N-{4-[(6,7-dimethoxy-4-quinolyl)oxy]-2,3-dimethylphenyl}carbamate]"
< 10,66,,"COc1cc2ncnc(Oc3ccc(NC(=O)OCCC4CCCCC4)cc3)c2cc1OC [Example 356, 2-Cyclohexylethyl N-{4-[(6,7-dimethoxy-4-quinazolinyl)oxy]phenyl}carbamate]"
< 10,116,,"COc1cc2ncnc(Oc3ccc(NC(=O)OCCC4CCCCC4)c(Cl)c3)c2cc1OC [Example 357, 2-Cyclohexylethyl N-{2-chloro-4-[(6,7-dimethoxy-4-quinazolinyl)oxy]phenyl}carbamate]"
< 10,366,,"CCC(CC)OC(=O)Nc1ccc(Oc2ccnc3cc(OC)c(OC)cc23)cc1 [Example 358, 1-Ethylpropyl N-{4-[(6,7-dimethoxy-4-quinolyl)oxy]phenyl}carbamate]"
28,274,,"CCC(CC)OC(=O)Nc1cc(C)c(Oc2ccnc3cc(OC)c(OC)cc23)cc1C [Example 359, 1-Ethylpropyl N-{4-[(6,7-dimethoxy-4-quinolyl)oxy]-2,5-dimethylphenyl}carbamate]"
16,189,,"CCC(CC)OC(=O)Nc1ccc(Oc2ccnc3cc(OC)c(OC)cc23)c(C)c1C [Example 360, 1-Ethylpropyl N-{4-[(6,7-dimethoxy-4-quinolyl)oxy]-2,3-dimethylphenyl}carbamate]"
< 10,278,,"CCC(CC)OC(=O)Nc1ccc(Oc2ncnc3cc(OC)c(OC)cc23)cc1 [Example 361, 1-Ethylpropyl N-{4-[(6,7-dimethoxy-4-quinazolinyl)oxy]phenyl}carbamate]"
42,,26,"CCC(CC)OC(=O)Nc1ccc(Oc2ncnc3cc(OC)c(OC)cc23)cc1Cl [Example 362, 1-Ethylpropyl N-{2-chloro-4-[(6,7-dimethoxy-4-quinazolinyl)oxy]phenyl}carbamate]"
< 10,72,,"COc1cc2nccc(Oc3ccc(NC(=O)OC4CCCC4)cc3)c2cc1OC [Example 363, Cyclopentyl N-{4-[(6,7-dimethoxy-4-quinolyl)oxy]phenyl}carbamate]"
29,98,,"COc1cc2nccc(Oc3cc(C)c(NC(=O)OC4CCCC4)cc3C)c2cc1OC [Example 364, Cyclopentyl N-{4-[(6,7-dimethoxy-4-quinolyl)oxy]-2,5-dimethylphenyl}carbamate]"
< 10,47,,"COc1cc2nccc(Oc3ccc(NC(=O)OC4CCCC4)c(C)c3C)c2cc1OC [Example 365, Cyclopentyl N-{4-[(6,7-dimethoxy-4-quinolyl)oxy]-2,3-dimethylphenyl}carbamate]"
27,66,,"COc1cc2ncnc(Oc3ccc(NC(=O)OC4CCCC4)cc3)c2cc1OC [Example 366, Cyclopentyl N-{4-[(6,7-dimethoxy-4-quinazolinyl)oxy]phenyl}carbamate]"
55,207,,"COc1cc2ncnc(Oc3ccc(NC(=O)OC4CCCC4)c(Cl)c3)c2cc1OC [Example 367, Cyclopentyl N-{2-chloro-4-[(6,7-dimethoxy-4-quinazolinyl)oxy]phenyl}carbamate]"
64,426,,"CCCCC(CCCC)OC(=O)Nc1ccc(Oc2ccnc3cc(OC)c(OC)cc23)cc1 [Example 368, 1-Butylpentyl N-{4-[(6,7-dimethoxy-4-quinolyl)oxy]phenyl}carbamate]"
> 100,,36,"CCCCC(CCCC)OC(=O)Nc1cc(C)c(Oc2ccnc3cc(OC)c(OC)cc23)cc1C [Example 369, 1-Butylpentyl N-{4-[(6,7-dimethoxy-4-quinolyl)oxy]-2,5-dimethylphenyl}carbamate]"
74,585,,"CCCCC(CCCC)OC(=O)Nc1ccc(Oc2ccnc3cc(OC)c(OC)cc23)c(C)c1C [Example 370, 1-Butylpentyl N-{4-[(6,7-dimethoxy-4-quinolyl)oxy]-2,3-dimethylphenyl}carbamate]"
